Like-named read-outs stand apart in the source and are kept apart here.
Legend:
Assay in all cases: Biological screening of extracts of induced Actinobacteria, BacTiter-Glo assay
Format in all cases: cell-based
[1] = tested on: Pseudomonas aeruginosa ATCC 27853
[2] = tested on: Staphylococcus aureus ATCC 33592
[3] = tested on: Escherichia coli ATCC 35218; settings: FIG. 4
[4] = tested on: Candida albicans ATCC 753; settings: FIG. 10
[5] = chemical inducer 3.3 μg/ml in medium 5294

## [Cl-].[Cl-].[Co+2] [CoCl2]
[1]
  extracts showing >50% activity against Pseudomonas aeruginosa ATCC 27853, share by culture condition: 3.8%
[2]
  extracts that showed >50% activity against Staphylococcus aureus ATCC 33592, share by culture condition: 3.6%

## C[S+](C)[O-] [DMSO]
[3]; chemical inducer 50 μl/ml in medium 5294
  extracts that showed >50% activity against Escherichia coli ATCC 35218, share by culture condition: 3.6%
[4]; chemical inducer 10 μl/ml in medium 5294
  extracts that showed >50% activity against Candida albicans ATCC 753, share by culture condition: 3.5%

## O=[Se]([O-])O.[Na+] [NaHSeO3]
[3]; [5]
  extracts that showed >50% activity against Escherichia coli ATCC 35218, share by culture condition: 3.3%

## [Cl][Ni][Cl] [NiCl2]
[4]; [5]
  extracts that showed >50% activity against Candida albicans ATCC 753, share by culture condition: 3.7%

## [Cl-].[Cl-].[Sr+2] [SrCl2]
[1]; chemical inducer 3.3 μg/ml in medium 5294, FIG. 6
  extracts showing >50% activity against Pseudomonas aeruginosa ATCC 27853, share by culture condition: 3.8%
[2]; chemical inducer 3.3 μg/ml in medium 5294, FIG. 8
  extracts that showed >50% activity against Staphylococcus aureus ATCC 33592, share by culture condition: 3.5%
[4]; chemical inducer 1.6 μg/ml in medium 5294
  extracts that showed >50% activity against Candida albicans ATCC 753, share by culture condition: 3.5%

Reference: patent publication US20150099667A1, “METHODS FOR THE ACTIVATION OF SILENT GENES IN A MICROORGANISM” (priority 2012, published 2015)
